# Measurements: patent US20220241331A1, “IDENTIFICATION OF RECURRENT MUTATED NEOPEPTIDES” (Yeda Research and Development Co. Ltd., priority 2019, published 2022)
# T1: NRAS Q61K (RAS.Q61K) peptide on HLA-A*01:01 (human)
# T1 peptide: ILDTAGKEEY
# T2: RAS wild-type (NRAS) peptide on HLA-A*01:01 (human)
# T2 peptide: ILDTAGQEEY
# B1: NA135.1/NB17.3 (TCR)
# alpha TRAV19 TRAJ39 CDR3: CALSESHNNAGNMLTF
# beta TRBV6-1 TRBJ1-1 CDR3: CAEGENTEAFF
# B2: N135.1 (TCR)
# alpha TRAV19 TRAJ39 CDR3: CALSESHNNAGNMLTF
# beta TRBV6-1 TRBJ1-1 CDR3: CAASQNTEAFF
# B3: N17.3 (TCR)
# alpha TRAV19 TRAJ17 CDR3: CALSESGDAAGNKLTF
# beta TRBV6-1 TRBJ1-1 CDR3: CAEGENTEAFF
# B4: N17.2 (TCR)
# alpha TRAV5 TRAJ9 CDR3: CAESSGGGFKTIF
# beta TRBV6-6 TRBJ2-7 CDR3: CASSTPGPSAYEQYF
# Experiments:
# 135TIL = assay: IFNγ release ELISA, 135TIL co-incubated with peptide-pulsed A*01:01 B-cells; type: cell-based, human; details: for IFN-γ release from TIL stimulated by pulsed peptide: peptide-pulsed A*01:01 EBV-transformed B cells, overnight co-incubation, vs non-pulsed B-cell control (FIG. 3A); for TIL IFNγ response in peptide titration: titrated concentrations of pulsed peptide (FIG. 3B)
# Method: (§1) IFNγ's release from TIL, as measured in an enzyme-linked immunosorbent assay (ELISA), was used to quantify reactivity. Synthetic pure (>95% purity) mutant ([…] (SEQ ID NO: 1)) and wild-type ([…] (SEQ ID NO: 2)) peptides were purchased from GenScript and dissolved in DMSO.
# (§2) EBV-transformed B-cells bearing HLA allele A*01:01 were used for peptide pulsing. A B-cell suspension at 1×10^6 cells/ml was incubated with the peptide of choice, at the desired concentration (0.001-10 μg/ml), for 4 h in a 37° C., 5% CO2, humidified incubator. The DMSO volume was kept at 1% in all samples. For the no-peptide control, DMSO devoid of peptides was added. The B-cells were washed in PBS three times before proceeding to the co-incubation with TILs. TILs were co-cultured with either cognate melanoma or EBV-transformed B-cells at a 1:1 ratio (10^5-2×10^6 cells) and incubated overnight in a 37° C., 5% CO2, humidified incubator. The soluble IFNγ secreted from TILs was quantified from the co-culture supernatant using Biolegend Human IFN-γ ELISA MAX Deluxe (Cat#430106). All experiments were conducted in biological triplicates.
# (§3) To evaluate the immunogenicity of the NRAS.Q61K neo-antigen, two melanoma cell lines that harbor the HLA-A*01:01/NRAS.Q61K combination, 17T and 135T were analyzed. Synthetic mutant (ILDTAG ? EEY-SEQ ID NO: 1) or wild-type (ILDTAG ? EEY-SEQ ID NO: 2) peptide was pulsed on either one of three commercial, A*01:01 expressing, Epstein bar virus (EBV)-transformed B cells^35. No other HLA class-I allele was shared among all three B-cell lines, and no other HLA class-I allele expressed by these cell lines was predicted to bind the neo-peptide at hand (Table 2).
# (§4) The peptide-pulsed B-cells were co-incubated with either 17TIL or 135TIL overnight, followed by measurement of peptide stimulated interferon-γ (IFN-γ) release from the TIL by means of enzyme-linked immunosorbent assay (ELISA). […] Peptide titration assays further confirmed specific TIL reactivity towards the HLA-A*01:01/NRAS.Q61K neo-antigen, for both 17TIL and 135TIL (FIG. 3B).
# 17TIL = assay: IFNγ release ELISA, 17TIL co-incubated with peptide-pulsed A*01:01 B-cells; type: cell-based, human; details: for IFN-γ release from TIL stimulated by pulsed peptide: peptide-pulsed A*01:01 EBV-transformed B cells, overnight co-incubation, vs non-pulsed B-cell control (FIG. 3A); for TIL IFNγ response in peptide titration: titrated concentrations of pulsed peptide (FIG. 3B)
# Method: as §1, §2, §3, §4
# [1] = molecular target: T1, NRAS Q61K (RAS.Q61K) peptide on …; assay: cytokine release
# Method: (§5) Peripheral mononuclear cells (PBMC) from healthy donors were electroporated with in-vitro transcribed mRNA, coding for TCRα/TCRβ combinations of interest. […] (A) Flow cytometry plots for electroporated PBMC. Top row—mouse TCRβ constant region staining. Bottom row—[sequence]/A*01:01 tetramer staining. Cells were stained at 6-30 hours post electroporation. (B) IFNγ release from electroporated donor PBMC as measured in ELISA. A*01:01+ B-LCL IHW01161 was pulsed with either wild-type or mutant versions of the peptide at 10 μM prior to overnight co-incubation with electroporated PBMC. Supernatants were diluted 1:20 prior to assay performance to avoid saturation.
# [2] = molecular target: T2, RAS wild-type (NRAS) peptide on …; assay: cytokine release
# Method: as §5
# [3] = molecular target: T1, NRAS Q61K (RAS.Q61K) peptide on …; assay: multimer staining
# Method: as §5
Molecule,IFN-γ release from TIL stimulated by pulsed peptide (135TIL),TIL IFNγ response in peptide titration (135TIL),IFN-γ release from TIL stimulated by pulsed peptide (17TIL),TIL IFNγ response in peptide titration (17TIL),binding result [2],binding result [3],also measured
"ILDTAGKEEY [RAS.Q61-derived neo-peptide, variant Q61K; presented on HLA-A*01:01]",stimulated a clear interferon-γ (IFN-γ) signal,clear dose-response relationship,stimulated a clear interferon-γ (IFN-γ) signal,clear dose-response relationship,–,–,minimum peptide concentration with significant IFNγ response (135TIL; peptide titration (FIG. 3B)): 1 ng/mL; minimum peptide concentration with significant IFNγ response (17TIL; peptide titration (FIG. 3B)): 10 ng/mL
"ILDTAGQEEY [WT RAS.Q61-derived peptide, reference compound]",did not elicit significant increase over a non-pulsed B-cell control,non-significant and did not depend on peptide concentration,did not elicit significant increase over a non-pulsed B-cell control,non-significant and did not depend on peptide concentration,–,–,–
B1,–,–,–,–,–,–,binding result [1]: recognises
B2,–,–,–,–,no recognition,recognises,–
B3,–,–,–,–,no recognition,recognises,–
B4,–,–,–,–,no recognition,recognises,–
